{
  "source": "patent US8685372B2",
  "about": "“Peptides and aptamers for targeting of neuron or nerves” (The Regents of the University of California, priority 2009, dated 2014)",
  "key": {"[1]": {"assay": "Peptide biodistribution and metabolism (organ fluorescence, LC-MS and MALDI of urine)", "format": "in vivo, mice", "experimental": "(§1) To evaluate the biodistribution of the peptide following systemic administration, organs were harvested from mice treated with SEQ ID NO:4 and fluorescence uptake was evaluated. […] To evaluate the metabolism of the peptide as it passed through the renal system, liquid chromatography-mass spectrometry (LC-MS, Agilent) tracing was used to compare urine obtained from mice injected with SEQ ID NO:25 or SEQ ID NO:31 intravenously versus urine from normal mice spiked with the native SEQ ID NO:25 or SEQ ID NO:31. […] Next, matrix-assisted. laser desorption/ionization (MALDI) was used to evaluate the nature of the modification to the peptide as it was metabolized.\nas §1, with “NO:25 and” for “NO:25 or”, “ID NO:3” for “ID NO:31”, “ID NO:25.” for “ID NO:25 or SEQ ID NO:31.”, “Next, matrix-assisted” for “Next, matrix-assisted.”"}, "sciatic nerves": {"tested_on": "sciatic nerves", "assay": "In vivo nerve labeling with fluorescently labeled peptides (nerve versus adjacent non-nerve tissue)", "parameters": "species or system mice", "conditions": "for Nerve contrast: derivatives of peptide SEQ ID NO: 4; for nerve to muscle contrast: FAM-labeled peptides intravenously, living mice, after wash-out", "experimental": "To test the nerve binding affinity of each of the isolated peptide sequences in vivo, carboxyfluorescein (FAM)-labeled peptides were injected intravenously into living mice. Following a wash-out period, the contrast between nerve and muscle binding of the labeled peptides was evaluated.\nWild-type albino C57BL6 (Jackson Laboratory) or SKH1 (Charles River Laboratories) mice were treated intravenously with 150 nmoles of fluorescently labeled SEQ ID NO:4 via tail vein injection. Following a 2-3 hour wash-out period for SEQ ID NO:25 or 5-6 hours for SEQ ID NO:31, mice were anesthetized with ketamine and midazolam (80 mg/kg intraperitoneally), a skin incision was made over the dorsal surface of the hind, legs and the sciatic nerves exposed bilaterally. […] Nerves and adjacent non-nerve tissue was delineated with Image J and relative fluorescence was measured. Following background subtraction using dark current measurements and measurements of a standard, the ratios of peptide binding to nerve versus adjacent non-nerve tissue were calculated."}, "sciatic nerve": {"tested_on": "sciatic nerve", "assay": "Histology: localization of binding in nerves of thy1-YFP transgenic mice", "format": "in vivo", "text": "To evaluate the localization of SEQ ID NO:4 binding in nerves, we treated thy1-YFP transgenic mice whose axons are genetically encoded with YFP under a neuron specific promoter (Feng et al, Imaging neuronal subsets in transgenic mice expressing multiple spectral variants of GFP. Neuron, 2000) with SEQ ID NO:31. […] These deeper nerve structures were not easily seen either with brightfield (FIG. 5A, insert) or YFP (FIG. 5B, insert) imaging. To evaluate the localization of SEQ ID NO:4 binding on a cellular level, we imaged cryosections (3-5 μm) of nerves and attached muscles from thy1-YFP animals treated with SEQ ID NO:31."}, "dissected nerve tissue": {"tested_on": "dissected nerve tissue", "assay": "In vitro nerve binding: dissected nerve tissue incubated with peptide", "parameters": "species or system mice", "conditions": "100 nM peptide, one hour incubation", "quoted_text": "To test the nerve binding affinity of each of the isolated peptide sequences in vitro, dissected nerve tissue was removed from mice and incubated for one hour with 100 nM of each peptide, including a control peptide made up of amino acids that were contained within the various phages selected and sequenced, but in a mixed-up order and designed without repeating any single amino acid except for glycine (which was added to the C-terminus as a flexible linker)."}},
  "note": "Entries after “also recorded” stand apart in the source; their conditions may differ. No end group written: not given here. heptamethinecyanine derivative = not defined here; Cy5 = Cy5 cyanine fluorescent dye label; 5,6FAM = 5(6)-carboxyfluorescein label",
  "data": [
    {"substance": "ACETYL-SHSNTQTLAKAPEHTG-(L-cys)-(Cy5)-amide (Ac-SHSNTQTLAKAPEHTGC(Cy5)-NH2; also: Cy5 on C-terminal Cys, attachment site not given here) [SEQ ID NO:31]", "values": [
      {"measurement": "native peptide detectable in urine of intravenously injected mice", "setting": "[1]; LC-MS", "value": "none"},
      {"measurement": "only fluorescently labeled entity identified in urine", "setting": "[1]; MALDI", "value": "cysteine-Cy5"},
      {"measurement": "Nerve contrast", "setting": "sciatic nerves", "value": "Medium/High"},
      {"measurement": "labeling of nerves genetically encoded with YFP", "setting": "sciatic nerve; Cy5 fluorescence versus YFP and brightfield", "value": "precisely labels nerves"},
      {"measurement": "localization of labeling within nerve", "setting": "sciatic nerve; cryosections of nerves", "value": "most localized to the epineurium of the nerves with some labeling of the perineurium and endoneurium; also recorded: labeling of epineurium, perineurium and endoneurium"},
      {"measurement": "tissue penetration compared to imaging in the visible range", "setting": "sciatic nerve; mouse, in vivo", "value": "deeper tissue penetration"}
    ]},
    {"substance": "AHHNSWKAKHHS (peptide that specifically binds to a neuron, nerve, or component of either) [SEQ ID NO:1]", "values": [
      {"measurement": "nerve to muscle contrast", "setting": "sciatic nerves", "value": "little significant nerve-to muscle contrast"},
      {"measurement": "uptake/binding to dissected nerve tissue compared to no peptide or control peptide", "setting": "dissected nerve tissue", "value": "two-fold increase over control to no difference from control"}
    ]},
    {"substance": "DFTKTSPLGIH (peptide that specifically binds to a neuron, nerve, or component of either) [SEQ ID NO:5]", "values": [
      {"measurement": "nerve to muscle contrast", "setting": "sciatic nerves", "value": "exhibited nerve to muscle contrast, although at a lower level than that of SEQ ID NO:4"},
      {"measurement": "uptake/binding to dissected nerve tissue compared to no peptide or control peptide", "setting": "dissected nerve tissue", "value": "two-fold increase over control to no difference from control"}
    ]},
    {"substance": "Free amine- SHSNTQTLAKAPEHTG-(L-cys)-(5,6FAM)-amide (H-SHSNTQTLAKAPEHTGC(5,6FAM)-NH2; not fully specified) [SEQ ID NO: 47]", "values": [
      {"measurement": "Nerve contrast", "setting": "sciatic nerves", "value": "Medium/High"}
    ]},
    {"substance": "KSLSRHDHIHHH (peptide that specifically binds to a neuron, nerve, or component of either) [SEQ ID NO:3]", "values": [
      {"measurement": "nerve to muscle contrast", "setting": "sciatic nerves", "value": "exhibited nerve to muscle contrast, although at a lower level than that of SEQ ID NO:4"},
      {"measurement": "uptake/binding to dissected nerve tissue compared to no peptide or control peptide", "setting": "dissected nerve tissue", "value": "two-fold increase over control to no difference from control"}
    ]},
    {"substance": "acetyl- SHSNTQTLAKAPEHTG(L-cys)(5,6FAM)-amide (Ac-SHSNTQTLAKAPEHTGC(5,6FAM)-NH2; not fully specified) [SEQ ID NO: 46]", "values": [
      {"measurement": "Nerve contrast", "setting": "sciatic nerves", "value": "Medium/High"}
    ]},
    {"substance": "acetyl- SHSNTQTLAKAPEHTG-(D-cys)-(5,6FAM)-amide (Ac-SHSNTQTLAKAPEHTG; not fully specified (C-terminus); also: 5,6FAM on C-terminal D-Cys, attachment site not given here)", "values": [
      {"measurement": "Nerve contrast", "setting": "sciatic nerves", "value": "Medium"}
    ]},
    {"substance": "acetyl- SHSNTQTLAKAPEHTG-(D-cys)-(cy5)-amide (Ac-SHSNTQTLAKAPEHTG; not fully specified (C-terminus))", "values": [
      {"measurement": "Nerve contrast", "setting": "sciatic nerves", "value": "Medium"}
    ]},
    {"substance": "acetyl- SHSNTQTLAKAPEHTG-(L-cys)-(IR800CW) (Ac-SHSNTQTLAKAPEHTGC(IR800CW); not fully specified) [SEQ ID NO: 48]", "values": [
      {"measurement": "Nerve contrast", "setting": "sciatic nerves", "value": "Low"}
    ]},
    {"substance": "acetyl- SHSNTQTLAKAPEHTG-(L-cys)-(Texas Red)-amide (Ac-SHSNTQTLAKAPEHTGC(Texas Red)-NH2) [SEQ ID NO: 50]", "values": [
      {"measurement": "Nerve contrast", "setting": "sciatic nerves", "value": "Medium"}
    ]},
    {"substance": "acetyl- SHSNTQTLAKAPEHTG-(L-cys)-(heptamethinecyanine derivative) (Ac-SHSNTQTLAKAPEHTGC(heptamethinecyanine derivative); not fully specified; reading uncertain) [SEQ ID NO: 52]", "values": [
      {"measurement": "Nerve contrast", "setting": "sciatic nerves", "value": "Low"}
    ]},
    {"substance": "acetyl- SHSNTQTLAKAPEHTG-(L-cys)-(indocyanine green derivative) [SEQ ID NO: 51]", "values": [
      {"measurement": "Nerve contrast", "setting": "sciatic nerves", "value": "Low"}
    ]},
    {"substance": "acetyl- SHSNTQTLAKAPEHTG-(L-cys-)-(TAMRA)-amide (Ac-SHSNTQTLAKAPEHTGC(TAMRA)-NH2) [SEQ ID NO: 49]", "values": [
      {"measurement": "Nerve contrast", "setting": "sciatic nerves", "value": "Medium"}
    ]}
  ]
}
